Patent publication US4977138A, “FR901228 substance and preparation thereof” (Fujisawa Pharmaceutical Co., Ltd., priority 1988, dated 1990)
Values after ≈ are worked out from the molar mass of the structure shown.

Tests used:
P388 murine leukemia = test: Antitumor activity against P388 murine leukemia; assay type: in vivo, BDFl mice; conditions: for Mean Survival Time: once daily for four days from 24 hours after inoculation, BDFl mice; for Time (%) (T/C % of mean survival time): 100× treated group/control group
Method: Antitumor activity of FR901228 substance was determined in murine tumor system. P388 leukemia cells […] were implanted intraperitoneally into BDFl mice (female, 8 weeks old). Twenty-four hours after the inoculation of tumor cells, FR901228 substance was administered intraperitoneally to mice. Administrations of FR901228 substance were continued intraperitoneally once daily for another three days. FR901228 substance was suspended in 0.9% saline. Control mice received intraperitoneal doses of 0.9% saline.
Antitumor activity was expressed as the mean survival time of group and also expressed as the T/C % (100× treated group/control group) of mean survival time.

SW480 (colon cancer) = test: Inhibition of human tumor cell growth in vitro (MTT cytotoxicity test); assay type: cell-based; conditions: four days
Method: (§1) The cytotoxicity test was performed in microtiter plates, with each well containing 3×10^3 tumor cells in 100 μl Dulbecco's minimum essential medium supplemented with 10% fetal calf serum, penicillin (50 units/ml) and streptomycin (50 μg/ml). The cells were incubated at 37° C. for four days and the colorimetric MTT [3-(4,5-dimethylthiazol-2-yl)-2,5-diphenyl tetrazolium bromide, made by Sigma] assay was performed according to the method described by Mosmann (J. Immunol. Methods, 65, 55-63, 1983). MTT was dissolved in phosphate buffer solution (PBS) at 5 mg/ml and filtered to sterilize and remove a small amount of insoluble residue. After the culture of human tumor cells was terminated, this MTT solution (10 μl per 100 μl medium) was added to all wells of an assay, and plates were further incubated at 37° C. for 4 hours. Acid-isopropanol (100 μl of 0.04N HCl in isopropanol) was added to all wells and mixed thoroughly to dissolve the dark blue crystals. After all crystals were dissolved, the plates were read on a 2-wavelength microplate photometer (Model MTP-22; Corona Electric Co., Ltd., Katsuta, Japan) at 550 nm, a reference wavelength of 660 nm. The object compound of this invention was dissolved in methanol and diluted in Dulbecco's minimum essential medium and added to the culture to give final concentration of 1 μg/ml or less.

A549 (lung cancer) = test: as above; assay type: cell-based; conditions: four days
Method: as §1

MCF-7 (breast cancer) = test: as above; assay type: cell-based; conditions: four days
Method: as §1

[1] = tested on: Aureobasidium pullulans IFO 4466; test: Antimicrobial activity, agar dilution method in Sabouraud medium; assay type: cell-based; conditions: 48 hours incubation at 25° C.
Method: (§2) Antimicrobial activity of FR901228 was performed by an agar dilution method in Sabouraud medium.
(§3) Minimum inhibitory concentration (MIC) is expressed in terms of μg/ml after 48 hours incubation at 25° C.

Aspergillus niger = test: as above; assay type: cell-based; conditions: 48 hours incubation at 25° C.
Method: as §2, §3

Shizosaccharomyces pombe = test: as above; assay type: cell-based; conditions: 48 hours incubation at 25° C.
Method: as §2, §3

[2] = Solubility of FR901228 substance in solvents; assay type: physicochemical
[3] = 0.32 mg/kg/day intraperitoneally
[4] = 1.0 mg/kg/day intraperitoneally

**Q.** Which results are given for `C/C=C1\NC(=O)[C@H]2CSSCC/C=C/[C@H](CC(=O)N[C@H](C(C)C)C(=O)N2)OC(=O)[C@H](C(C)C)NC1=O` [FR901228 substance]?
**A.** Mean Survival Time (P388 murine leukemia; [3]): 14.25 days; Time (%) (T/C % of mean survival time) (P388 murine leukemia; [3]): 158.3%; Mean Survival Time (P388 murine leukemia; [4]): 15.25 days; Time (%) (T/C % of mean survival time) (P388 murine leukemia; [4]): 169.4%; IC50 (SW480 (colon cancer)): 0.57 ng/mL (≈ 0.00105 µM); IC50 (A549 (lung cancer)): 0.82 ng/mL (≈ 0.00152 µM); IC50 (MCF-7 (breast cancer)): 0.99 ng/mL (≈ 0.00183 µM); MIC [1]: 10 µg/mL (≈ 18.5 µM); MIC (Aspergillus niger): 100 µg/mL (≈ 185 µM); MIC (Shizosaccharomyces pombe): 10 µg/mL (≈ 18.5 µM); Solubility ([2]; chloroform): soluble; Solubility ([2]; ethanol): sparingly soluble; Solubility ([2]; ethyl acetate): soluble; Solubility ([2]; hexane): insoluble; Solubility ([2]; methanol): sparingly soluble; Solubility ([2]; water): insoluble
